Usually IC50 stands for the concentration that gives 50% inhibition. A low value points to inhibition by little substance.

Square brackets hold non-standard residues; d marks the D form. Peptide text beside a SMILES is read from it. * marks the point of attachment. Sta = CC(C)C[C@H](N)[C@@H](O)CC(=O)O; Isovaleryl = CC(C)CC(=O)*

The text below walks through data of patent US5171751A, “Benzofuran/benzofuranalkyl-N-terminal amino hydroxy” (G. D. Searle & Co., priority 1991, dated 1992).

One assay addresses T1, human renin (Homo sapiens, UniProt P00797).
T1 construct: purchased National Institute for Biological Standards, London
T1 sequence (P00797 67-406): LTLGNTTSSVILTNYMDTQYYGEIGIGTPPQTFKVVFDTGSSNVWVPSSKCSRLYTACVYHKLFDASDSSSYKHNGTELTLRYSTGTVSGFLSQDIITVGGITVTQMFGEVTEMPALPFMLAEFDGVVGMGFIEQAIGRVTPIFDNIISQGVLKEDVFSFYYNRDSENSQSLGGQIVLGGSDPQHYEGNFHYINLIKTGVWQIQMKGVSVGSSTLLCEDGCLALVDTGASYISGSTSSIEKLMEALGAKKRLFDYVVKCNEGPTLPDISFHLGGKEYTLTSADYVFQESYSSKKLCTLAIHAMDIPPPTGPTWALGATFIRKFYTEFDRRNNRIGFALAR
Kind of assay: In vitro human renin inhibition (angiotensin I determined by radioimmunoassay). Format: biochemical. The note with it: 37° C., pH 7.4, two hours. As for the experimental part: Compounds of Formula I were evaluated as inhibitors of human renin in an in vitro assay. This human renin inhibition test has been previously described in detail Papaioannou et al., Clinical and Experimental Hypertension, A7(9), 1243-1257 (1985)]. Human renin was obtained from the National Institute for Biological Standards, London. An incubation mixture was prepared containing in a total volume of 0.25 mL 100 mM Tris-acetate buffer at pH 7.4, 25×10^-6 Goldblatt units of renin, 0.05mL of plasma from human volunteers taking oral contraceptives, 6.0 mM sodium EDTA, 2.4 mM phenylmethyl sulfonyl fluoride, 1.5 mM 8-hydroxyquinoline, 0.4 mg/mL BSA, and 0.024 mg/mL neomycin sulfate. This mixture was incubated for two hours at 37° C. in the presence or absence of renin inhibitors. The produced angiotensin I was determined by radioimmunoassay (New England Nuclear kit). Test compounds to be assayed were dissolved in DMSO and diluted with 100mM Tris-acetate buffer at pH 7.4 containing 0.5% BSA to the appropriate concentration. The final concentration of organic solvent in the reaction mixture was less than 1%. Control incubations at 37° C. were used to correct for effects of organic solvent on renin activity.

In a further assay the test system is pepsin. As to conditions: cited from earlier work.
The subject of the next assay is cathepsin D. As to conditions: cited from earlier work.
In the next assay the test system is acid proteases. As to conditions: cited from earlier work.
Another assay has as its system renin. The note with it: cited from earlier work.
In a further assay the test system is hog renin. The note with it: after injection of hog renin into nephrectomized rats; cited from earlier work.

On to `CC(C)C[C@H](O)[C@H](O)[C@H](CC1CCCCC1)NC(=O)[C@H](C)CNC(=O)CCc1c[nH]c2ccccc12` [Example 22, N-[3-[[1S, 1R^* -(cyclohexylmethyl)-2S^*, 3R^* -dihydroxy-5-methylhexyl]amino]-2S^* -methyl-3-oxopropyl]-1H-indole-3-propanamide], for which the IC50 at human renin amounted to 430 nM.
Take `CC(C)CC(=O)N[C@H](C(=O)N[C@H](C(=O)N[C@@H](CC(C)C)[C@@H](O)CC(=O)N[C@@H](C)C(=O)N[C@@H](CC(C)C)[C@@H](O)CC(=O)O)C(C)C)C(C)C` [pepstatin] (Isovaleryl-VV[Sta]A[Sta]-OH): the inhibitor of pepsin entry in the assay on pepsin was “inhibitor”. Also, the “inhibitor of cathepsin D” value in the assay with cathepsin D was “inhibitor”. In addition, in the assay on acid proteases, the “inhibiting acid proteases in addition to renin” value was “inhibiting acid proteases in addition to renin”. Also, in the assay with renin, the inhibitor of renin result is given as “inhibitor”. For the same compound, in the assay on hog renin, the “reduction of blood pressure in vivo” value is “reduce blood pressure in vivo”.
